Reference: the supplement of paper PMC9763283

Columns and labels:
Assay in all cases: area under growth-rate inhibition curve (AUC GRI) (dimensionless (GR-based AUC)); higher = less growth inhibition
Conditions in all cases: exposure time: 72 h; concentrations: 0.1, 1, 10 uM
MDA-MB-231 = system: MDA-MB-231
Summary of the method: (§1)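 Six breast cancer cell line models were used: two triple-negative lines, plus parental HER2+ lines and HER2+ lines resistant to a two-drug combination, each plated at an optimised log-phase density and treated with compound at 0.1, 1 or 10 µM for 72 h. After fixation in 4% paraformaldehyde, nuclei were stained with Hoechst 33342 or DAPI, imaged and counted. Growth was corrected using Day 0 plates, untreated Day 3 plates and DMSO controls, with 2 biological replicates. These corrected counts gave the area under the growth-rate inhibition curve.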

SKBR3-P = system: SKBR3-P
Summary of the method: as §1

BT474-LTR = system: BT474-LTR
Summary of the method: as §1

SKBR3-LTR = system: SKBR3-LTR
Summary of the method: as §1

MDA-MB-468 = system: MDA-MB-468
Summary of the method: as §1

BT474-P = system: BT474-P
Summary of the method: as §1

| SMILES | area under growth-rate inhibition curve (MDA-MB-231) | area under growth-rate inhibition curve (SKBR3-P) | area under growth-rate inhibition curve (BT474-LTR) | area under growth-rate inhibition curve (SKBR3-LTR) | area under growth-rate inhibition curve (MDA-MB-468) | area under growth-rate inhibition curve (BT474-P) |
| --- | --- | --- | --- | --- | --- | --- |
| Cc1c(C(=O)Nc2ccc(N3CC(C)OC(C)C3)nc2)cccc1-c1ccc(OC(F)(F)F)cc1 (stereo not given) [LDE225 (NVP-LDE225,Erismodegib)] | 0.921 | 0.981 | 1.04 | 1.03 | 0.915 | 0.909 |
| Cl.Clc1ccc2nsnc2c1NC1=NCCN1 [Tizanidine HCl] | 1.02 | 1 | 1.07 | 1.01 | 1.02 | 1.02 |
| CCC(=O)NCC[C@@H]1CCc2ccc3c(c21)CCO3 [Ramelteon] | 1.03 | 1.03 | 1.1 | 1.06 | 1.05 | 1.05 |
| CCCCOc1ccc(C(=O)Nc2ccc(F)cc2F)cc1 | 1.02 | 1.01 | 1.06 | 1.05 | 1.01 | 1.02 |
| CCCN[C@H]1CCc2nc(N)sc2C1 [Pramipexole] | 1.03 | 1.01 | 1.1 | 1.08 | 1.05 | 1.07 |
| O=C(CCCN1CC=C(n2c(=O)[nH]c3ccccc32)CC1)c1ccc(F)cc1 [Droperidol] | 1.02 | 1.02 | 1.04 | 1.07 | 0.992 | 1.03 |
| NCC(=O)O [Glycine] | 1.04 | 1.03 | 1.05 | 1.06 | 1.03 | 1.03 |
| CCN1CCCC1CNC(=O)c1cc(S(N)(=O)=O)ccc1OC (stereo not given) [Levosulpiride] | 1.01 | 1.01 | 1.06 | 1.05 | 1.03 | 1.02 |
| O=C(c1ccc(OCCN2CCCCC2)cc1)c1c(-c2ccc(O)cc2)sc2cc(O)ccc12.[Cl-].[H+] [Raloxifene HCl] | 0.957 | 0.996 | 0.931 | 0.996 | 0.931 | 0.82 |
| COc1ccc([C@@H]2CC(=O)c3c(O)cc(O)cc3O2)cc1O [Hesperetin] | 1 | 1.03 | 1.02 | 1.02 | 0.996 | 1.01 |
| CCN1CCCC1CNC(=O)c1cc(S(=O)(=O)CC)c(N)cc1OC (stereo not given) [Amisulpride] | 0.988 | 1.02 | 0.985 | 0.975 | 1.01 | 1.01 |
| Cl.c1ccc2c(CC3=NCCN3)cccc2c1 [Naphazoline HCl] | 1.05 | 1.02 | 1.11 | 1.07 | 1.03 | 1.04 |
| COc1ccccc1N1CCN(CC(O)COc2cccc3ccccc23)CC1 (stereo not given) [Naftopidil] | 1.04 | 1 | 1.08 | 1.07 | 1.02 | 1.01 |
| CC(C)C[C@@H]1NC(=O)[C@@H](C(C)C)NC(=O)[C@@H]2CCCN2C(=O)[C@@H](CC(=O)O)NC(=O)[C@@H](Cc2c[nH]c3ccccc23)NC1=O [BQ-123] | 0.988 | 1.01 | 1.02 | 1.03 | 0.996 | 0.983 |
| COc1ccc(OC)c(C(O)C(C)N)c1 (stereo not given) [methoxamine] | 1.05 | 1.05 | 1.07 | 1.04 | 1.05 | 1.01 |
